{"source": "patent US11667612B2", "about": "“Compositions and methods for delivering pharmaceutical agents” (Arizona Board of Regents on Behalf of the University of …, priority 2017, dated 2023)", "key": {"[1]": {"test": "Laser diffraction particle sizing and size distribution", "format": "physicochemical", "protocol": "Particle size and size distributions of the particles were determined by laser diffraction with the SALD-7101 (Shimadzu Scientific Instruments, Japan) using conditions previously reported (Li X, Mansour H M., AAPS PharmSciTech. December 2011; 12(4):1420-1430; Meenach S A, et al., Int J Nanomedicine. 2013; 8:275-293; Wu X, et al., Drug design, development and therapy. 2013; 7:59-72; Wu X, et al., Int J Nanomedicine. 2013; 8:1269-1283) for measurement of the mean size and size distribution of SD particles in aqueous suspension. Samples were dispersed in ultrapure water and ultrasonicated for 10 s in water bath ultrasonicator Branson 7500 before measuring particle size. Sample particle dispersion was immediately transferred to particle size measuring cell and kept stirring during measurement in nano particle size analyzer. The low refractive index of 1.50-0.00i was used. Volume-based measurements were obtained. DV10, DV50, and DV90 were used as particle size characterization parameters. The span value was calculated using the equation defined as Span=[(DV90−DV10)/DV50] Equation 1. X-Ray Powder Diffraction (XRPD)"}, "[2]": {"test": "Karl Fischer coulometric titration, residual water content", "format": "physicochemical"}, "[3]": {"test": "In vitro aerosol dispersion performance, Next Generation Impactor (NGI)", "format": "physicochemical", "conditions": "for Emitted Fraction (%) / Emitted dose / Fine Particle Dose / Fine Particle Fraction (%) / GSD / MMAD / Respirable Dose / Respirable Fraction (%): NGI 60 L/min", "experimental": "In accordance with US Pharmacopeia (USP) Chapter <601> specification on aerosols and using conditions similar to previously reported (Meenach S A, et al., AAPS PharmSciTech. 2014; 15(6):1574-1587; Muralidharan P, et al., Molecular Systems Design & Engineering. 2016), the in vitro aerosol dispersion properties of the dry powder particles were determined using the Next Generation Impactor® (NGI®) with a stainless steel induction port (USP throat) attachment (NGI® Model 170), equipped with specialized stainless steel NGI® gravimetric insert cups (MSP Corporation, Shoreview, Md., USA). The NGI® was coupled with a Copley TPK 2000 critical flow controller connected to a Copley HCP5 vacuum pump, and the airflow rate (Q), was measured and adjusted prior to each experiment using a Copley DFM 200 flow meter (Copley Scientific, UK).\nThe mass of powder deposited on each stage was quantified by a gravimetric method using type A/E glass fiber filters with diameter 55 mm (PALL Corporation, Port Washington, N.Y.) and 75 mm (Advance, Japan). Quali-V clear HPMC size 3 inhalation grade capsules (Qualicaps, North Carolina) filled with about 10 mg of powder were used. Three capsules were used in each experiment. In vitro aerosolization was done in triplicate (n=3) under ambient conditions. The NGI™ was operated at a flow rate of 601 min^1 with an actuation time of 10 s through the inhaler. The glass fiber filter was measured gravimetrically before and after actuation, on each stage, to determine the particle stage deposition. The fine particle dose (FPD), fine particle fraction (FPF), respirable fraction (RF), and emitted dose (ED) were calculated using the following equations:\n[formula] [formula] [formula] The mass mean aerodynamic diameter (MMAD) and geometric standard deviation (GSD) of aerosol dispersion profiles were determined using a Mathematica (Wolfram Research Inc., Champaign, Ill.) program ((Meenach S A, et al., AAPS PharmSciTech. 2014; 15(6):1574-1587; Muralidharan P, et al., Molecular Systems Design & Engineering. 2016). The aerosol dispersion performance was tested using three FDA approved inhalers Handihaler®, Aerolizer®, and Neohaler®. In Vitro Cell Dose Response Assay\nIn accordance with US Pharmacopeia (USP) Chapter <601> specification on aerosols and using conditions similar to previously reported, the in vitro aerosol dispersion properties of the dry powder particles were determined using the Next Generation Impactor® (NGI®) with a stainless steel induction port (USP throat) attachment (NGI® Model 170), equipped with specialized stainless steel NGI® gravimetric insert cups (MSP Corporation, Shoreview, Md., USA). The NGI® was coupled with a Copley TPK 2000 critical flow controller connected to a Copley HCP5 vacuum pump, and the airflow rate (Q), was measured and adjusted prior to each experiment using a Copley DFM 200 flow meter (Copley Scientific, UK).\nThe mass of powder deposited on each stage was quantified by gravimetric method using type A/E glass fiber filters with diameter 55 mm (PALL Corporation, Port Washington, N.Y.) and 75 mm (Advance, Japan). Quali-V clear HPMC size 3 inhalation grade capsules (Qualicaps, North Carolina) filled with about 10 mg of powder were used. Three capsules were used in each experiment. In vitro aerosolization was done in triplicate (n=3) under ambient conditions. The NGI™ was operated at a flow rate of 601 min^−1 with a delay time of 10 s before actuation of the inhaler, followed by 10 s of airflow through the inhaler. The glass fiber filter was measured gravimetrically before and after actuation, on each stage, to determine the particle stage deposition. The fine particle dose (FPD), fine particle fraction (FPF), respirable fraction (RF), and emitted dose (ED) were calculated using the 3-6 equations:"}, "[4]": {"tested_on": "Calu-3 lung epithelial cells", "test": "In vitro transepithelial electrical resistance (TEER) analysis", "format": "cell-based, human", "conditions": "Calu-3, AIC, 100 μM", "protocol": "The cells were seeded at 500,000 cells/ml in Costar Transwells® (0.4 μm polyester membrane, 12 mm for a 12-well plate) with 0.5 ml of media on the apical side and 1.5 ml of media on the basolateral side. Media was changed every other day from the basolateral and apical side. After 10 days of growth, when the cells reached a TEER value of about 1000 Ω/cm^2 which is an indicator of a confluent monolayer at liquid covered culture (LCC) the media was removed from both sides and 800 μl of media was added to the basolateral side of the Transwells to facilitate air-interface culture (AIC) conditions. The TEER responses of the cells were measured with an Endohom 12 mm Culture Cup (World Precision Instruments, Sarasota, Fla.). […] TEER values were then recorded for up to 7 days after aerosol treatment, as previously reported (Meenach S A, 2014, supra; Meenach S A, et al., April 2016; 48(4):1701-1709).\nThe cells were seeded at 500,000 cells/ml in Costar Transwells® (0.4 μm polyester membrane, 12 mm for a 12-well plate) with 0.5 ml of media on the apical side and 1.5 ml of media on the basolateral side. […] The TEER responses of the cells were measured with an Endohom 12 mm Culture Cup (World Precision Instruments, Sarasota, Fla.). […] TEER values were then recorded for up to 7 days after aerosol treatment, as previously reported (Meenach et al., 2014, supra; Meenach et al., 2016, supra)."}, "[5]": {"tested_on": "monocrotaline (MCT) rat model of PH", "test": "In vivo hemodynamic efficacy study in PH induced rats (monocrotaline model)", "design": "species or system Sprague Dawley rats", "conditions": "for Right ventricle systolic pressure (RVSP): individual rats, inhaled dry powder 10 mg/kg for 14 days", "protocol": "In vivo studies were conducted in a monocrotaline (MCT) rat model with the purpose of testing the efficacy of TMP in decreasing PH. A total of 30 male Sprague Dawley rats (280-350 g) were used in this study. Rats were purchased from Charles River Laboratories International Inc. (Wilmington, Mass.). Rats were weighted weekly to monitor their health. PH was induced by injecting 60 mg/kg of MCT via intraperitoneally. The animals were divided into 5 groups (n=5) into the following categories: 1) Naïve (control), 2) Naïve+TMP, 3) MCT (PH induced) 4) MCT+ treated with vehicle (air), 5) MCT+ treated with TMP. Two weeks after MCT administration, the rats started to get the treatment via aerosolization of a dry powder formulation of SD TMP (10 mg/kg) using a Penn Century Dry Powder Insufflator™—Model DP-4M for 14 days. Right ventricle systolic pressure (RVSP) hemodynamics were performed after 2 weeks and 4 weeks after MCT administration by inserting a customized pressure transducer catheter (SPR-513, Millar Instruments, Houston, Tex.), into the right ventricle (RV) via the right jugular vein and right atrium. The transducer was connected to a Millar Transducer Control Unit TC-510 and PL3504 PowerLab 4/35 data acquisition system (ADInstruments, Inc., Colorado Springs, Colo.). At the end of pressure recording, the animals were euthanized."}, "[6]": {"conditions": "laser diffraction, aqueous suspension, volume-based"}, "[7]": {"conditions": "Aerolizer, listed as spray dried TMP"}, "[8]": {"conditions": "Handihaler, listed as spray dried TMP"}, "[9]": {"conditions": "Neohaler, listed as spray dried TMP"}}, "note": "Where “and” joins values, the source holds several entries; their conditions need not be identical. Identical values can stand only once.", "data": [{"smiles": "Cc1nc(C)c(C)nc1C", "note": "[SD TMP, tetramethylpyrazine]", "values": [{"measurement": "Particle sizing span value", "setting": "[1]; (Dv90-Dv10)/Dv50", "value": "1.684±0.645"}, {"measurement": "Particle size distribution (size range)", "setting": "[1]; laser diffraction", "value": "4-14 μm"}, {"measurement": "Particle sizing Dv10", "setting": "[1]; [6]", "value": "4.186±0.701", "unit": "μm"}, {"measurement": "Particle sizing Dv50", "setting": "[1]; [6]", "value": "6.156±1.47 μm and 6.156 ± 1.147 μm"}, {"measurement": "Particle sizing Dv90", "setting": "[1]; [6]", "value": "14.552±4.928", "unit": "μm"}, {"measurement": "Residual water content", "setting": "[2]", "value": "0.368±0.103", "unit": "% w/w"}, {"measurement": "Emitted Fraction (%)", "setting": "[3]; Aerolizer", "value": 88, "unit": "%"}, {"measurement": "Emitted dose", "setting": "[3]; Aerolizer", "value": 79.98, "unit": "mg"}, {"measurement": "Fine Particle Dose", "setting": "[3]; Aerolizer", "value": 1.15, "unit": "mg"}, {"measurement": "Fine Particle Fraction (%)", "setting": "[3]; Aerolizer", "value": 1.41, "unit": "%"}, {"measurement": "GSD", "setting": "[3]; Aerolizer", "value": 2.88}, {"measurement": "MMAD", "setting": "[3]; Aerolizer", "value": 15.23, "unit": "μm"}, {"measurement": "Respirable Dose", "setting": "[3]; Aerolizer", "value": 8.16, "unit": "mg"}, {"measurement": "Respirable Fraction (%)", "setting": "[3]; Aerolizer", "value": "14.86 ± 8.0", "unit": "%"}, {"measurement": "Emitted Fraction (%)", "setting": "[3]; [7]", "value": "88.76 ± 7.27", "unit": "%"}, {"measurement": "Fine Particle Fraction (%)", "setting": "[3]; [7]", "value": "1.41 ± 0.57", "unit": "%"}, {"measurement": "MMAD", "setting": "[3]; [7]", "value": 15.23, "unit": "μm"}, {"measurement": "Emitted Fraction (%)", "setting": "[3]; Handihaler", "value": 100, "unit": "%"}, {"measurement": "Emitted dose", "setting": "[3]; Handihaler", "value": 86.92, "unit": "mg"}, {"measurement": "Fine Particle Dose", "setting": "[3]; Handihaler", "value": 3.33, "unit": "mg"}, {"measurement": "Fine Particle Fraction (%)", "setting": "[3]; Handihaler", "value": 3.33, "unit": "%"}, {"measurement": "GSD", "setting": "[3]; Handihaler", "value": 5.28}, {"measurement": "MMAD", "setting": "[3]; Handihaler", "value": 68.4, "unit": "μm"}, {"measurement": "Respirable Dose", "setting": "[3]; Handihaler", "value": 37.24, "unit": "mg"}, {"measurement": "Respirable Fraction (%)", "setting": "[3]; Handihaler", "value": "8.9 ± 3.87", "unit": "%"}, {"measurement": "Emitted Fraction (%)", "setting": "[3]; [8]", "value": "100 ± 2.03", "unit": "%"}, {"measurement": "Fine Particle Fraction (%)", "setting": "[3]; [8]", "value": "3.83 ± 0.42", "unit": "%"}, {"measurement": "MMAD", "setting": "[3]; [8]", "value": 68.4, "unit": "μm"}, {"measurement": "Emitted Fraction (%)", "setting": "[3]; Neohaler", "value": 88, "unit": "%"}, {"measurement": "Emitted dose", "setting": "[3]; Neohaler", "value": 79.28, "unit": "mg"}, {"measurement": "Fine Particle Dose", "setting": "[3]; Neohaler", "value": 3.48, "unit": "mg"}, {"measurement": "Fine Particle Fraction (%)", "setting": "[3]; Neohaler", "value": 4.36, "unit": "%"}, {"measurement": "MMAD", "setting": "[3]; Neohaler", "value": 43.73, "unit": "μm"}, {"measurement": "Respirable Dose", "setting": "[3]; Neohaler", "value": 25.19, "unit": "mg"}, {"measurement": "Respirable Fraction (%)", "setting": "[3]; Neohaler", "value": "14.87 ± 7.30", "unit": "%"}, {"measurement": "Emitted Fraction (%)", "setting": "[3]; [9]", "value": "88.41 ± 6.70", "unit": "%"}, {"measurement": "Fine Particle Fraction (%)", "setting": "[3]; [9]", "value": "4.36 ± 0.65", "unit": "%"}, {"measurement": "MMAD", "setting": "[3]; [9]", "value": 43.73, "unit": "μm"}, {"measurement": "Particles deposited on the first NGI stage", "setting": "[3]; in vitro aerosol stage deposition", "value": "above 90%"}, {"measurement": "TEER (electrical resistance)", "setting": "[4]; 3 hours after treatment", "value": "decreases drastically"}, {"measurement": "TEER (electrical resistance)", "setting": "[4]; seven days of culturing after treatment", "value": "resistance was regained"}, {"measurement": "Right ventricle systolic pressure (RVSP)", "setting": "[5]; Group 2 (Naive + TMP)", "value": "20-25 mmHg and ~25 mmHg and 23.8990 mmHg and 24.7030 mmHg and 26.0550 mmHg and 19.6940 mmHg and 20.8110 mmHg and 24.2410 mmHg"}, {"measurement": "Right ventricle systolic pressure (RVSP)", "setting": "[5]; Group 5 (MCT + TMP), 4 weeks after MCT", "value": "58.6830 mmHg and 62.4200 mmHg and 43.3890 mmHg and 59.8200 mmHg and 78.2010 mmHg and 70.5310 mmHg"}, {"measurement": "Body weight", "setting": "[5]; Group 5 (MCT + TMP), measured weekly", "value": "significant loss of weight"}, {"measurement": "Decrease of RVSP relative to group 3 (MCT, 4 weeks)", "setting": "[5]; Group 5, after two weeks of aerosol treatment", "value": "20-30 mmHg"}, {"measurement": "Effect on cell viability", "setting": "A549 pulmonary cell line", "value": "didn't affect the cell viability"}, {"measurement": "Amount of drug found not to be toxic to pulmonary cell lines", "setting": "A549 pulmonary cell line; human, 72 h", "value": "up to 7 mg"}, {"measurement": "Effect on cell viability", "setting": "H358 pulmonary cell line", "value": "didn't affect the cell viability"}]}, {"smiles": "Cc1nc(C)c(C)nc1C", "note": "[Raw TMP, tetramethylpyrazine, reference compound]", "values": [{"measurement": "Residual water content", "setting": "[2]", "value": "0.633 ± 0.251", "unit": "% w/w"}, {"measurement": "Effect on cell viability", "setting": "H358 pulmonary cell line", "value": "decrease"}]}]}
